Measured values reported in article PMC6337391 (Molecules, 2019).
pIC50: −log10 of the molar value.

Target: T1, human h-15-LOX-1 (Homo sapiens, UniProt P16050)
T1 sequence (P16050 1-662): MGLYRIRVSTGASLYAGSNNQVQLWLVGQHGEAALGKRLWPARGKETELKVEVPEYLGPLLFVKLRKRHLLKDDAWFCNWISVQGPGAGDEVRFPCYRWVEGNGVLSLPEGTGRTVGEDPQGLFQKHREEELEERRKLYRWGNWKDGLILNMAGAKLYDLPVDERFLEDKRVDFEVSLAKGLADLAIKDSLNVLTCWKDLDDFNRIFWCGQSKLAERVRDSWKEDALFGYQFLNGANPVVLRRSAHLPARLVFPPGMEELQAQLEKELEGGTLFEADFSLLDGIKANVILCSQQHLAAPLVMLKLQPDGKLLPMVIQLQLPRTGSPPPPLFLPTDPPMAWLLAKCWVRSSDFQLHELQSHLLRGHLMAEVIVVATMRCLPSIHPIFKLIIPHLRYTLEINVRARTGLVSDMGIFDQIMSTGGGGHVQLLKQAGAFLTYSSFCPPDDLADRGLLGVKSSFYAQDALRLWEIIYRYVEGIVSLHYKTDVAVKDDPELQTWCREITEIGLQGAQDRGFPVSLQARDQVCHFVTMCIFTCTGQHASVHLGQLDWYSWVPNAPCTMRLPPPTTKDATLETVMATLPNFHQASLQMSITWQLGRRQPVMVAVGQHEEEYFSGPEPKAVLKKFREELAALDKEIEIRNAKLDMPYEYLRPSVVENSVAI
Assay: Human h-15-LOX-1 screening UV assay
Format: biochemical
Conditions: for h-15-LOX-1 inhibitory potency ranking at 50 µM (in words): 10 min pre-incubation
Protocol: The residual enzyme activity was measured after 10 min pre-incubation with the tested compounds at room temperature. […] Compound c11 follows.
The assay buffer consists of HEPES titrated to pH 7.5 using a concentrated aqueous solution of NaOH. Linoleic acid (LA) was used as a substrate. The linear absorbance increase in absence of the inhibitor was set as 100%, whereas the absorbance increase in absence of the enzyme was set to 0%. All experiments were performed in triplicate and the average triplicate values and their standard deviations are plotted. The vertical axis describes the residual enzyme activity percent % of the human h-15-LOX-1, whereas the horizontal axis describes the concentration of 50 µM of the compounds. The half maximal inhibitor concentration (IC50) of the inhibitors for h-15-LOX-1 was determined using the same assay (Figure 6 and Figure 7).

Structure (SMILES)	h-15-LOX-1 inhibitory potency ranking at 50 µM (in words)	pIC50 (read-out: h-15-LOX-1 Inhb. IC50)
O=C(/C=C/c1cccc2ccccc12)c1ccccc1O [b4, (E)-1-(2-hydroxyphenyl)-3-(naphthalen-1-yl) prop-2-en-1-one]	highest activity within the group	5.02
O=C(/C=C/C=C/c1ccc([N+](=O)[O-])cc1)c1ccc(OCCCOc2ccc(C(=O)/C=C/C=C/c3ccc([N+](=O)[O-])cc3)cc2)cc1 [c11, (2E,2′E,4E,4′E)-1,1′-((propane-1,3-diylbis(oxy))bis(4,1-phenylene))bis(5-(4-nitrophenyl)penta-2,4-dien-1-one)]	(2nd potent at 50 μM)	
